# From patent publication US10550120B2, “Indole alkaloid compound having immune checkpoint inhibitory action” (TOHOKU UNIVERSITY, priority 2016, dated 2020)
# Assays:
# IL-10 = assay: Measurement of human IL-10 amount in culture supernatant of MT2 cells with ELISA kit (Test 1); format: cell-based; details: 48±2 hours; for activity at 12.5 µM / activity at 25 µM: Homo sapiens, 48 h, DMSO control = 100%, read-out: % against control (IL-10 production)
# Procedure: (§1) MT2 cells from human adult T-cell leukemia were used. Leukemia cells of human adult T-cell leukemia (ATL) express CD4 and CD25 molecules on the cell surface and are considered to be derived from Treg (Chen S. et al., International Immunology 18:269-277 (2005)). MT2 cells were used in experiments as models of Treg since the cells are CD4 positive, CD25 positive, and FOXP3 positive celles derived from ATL.
# (§2) The example compounds (compounds 1-17) of the present invention were dissolved in dimethylsulfoxide (DMSO) to prepare each 50 mmol/L solution, which was preserved at −80° C.
# The amount of IL-10 production in the control and the example compounds was measured to evaluate the inhibitory effect on IL-10 production of the example compounds of the present invention.
# (1) MT2 cells are suspended in RPMI1640 medium (hereinafter referred to as “the medium”) supplemented with 10% fetal calf serum (FCS) and 1% penicillin/streptomycin (P/S) to give 3×10^5 cells/mL suspension, and 1 mL of the suspension was added to each well of a 24-well plate. […] The cell cultures were incubated 48±2 hours in a CO2 incubator (under a condition of 37° C., 5 CO2). DMSO was diluted 50-fold with the medium, and 20 μL of the diluent was added to the well to make a control of compounds 1-7. In addition, DMSO was diluted 50-fold with the medium, and 25.0 μL of the diluent was added to the well to make a control of compounds 8-17.
# (2) A piece of the cell culture was sampled to count cells with a cell counter (BIO RAD TC-20). The cell culture was centrifuged at 300×g for 5 minutes and the supernatant was collected as a sample for IL-10 measurement. When not measured within a day, it was preserved in a freezer at −80° C.
# (3) Human IL-10 ELISA kit II (BD OptEIA) was used on the measurement. The kit contains wells treated with anti-IL-10 antibody (8 wells/strip), Standard/Sample diluent, vials comprising freeze-dried IL-10 Standard (1280 pg/vial), ELISA diluent, 20× Wash Buffer, Detection antibody, Enzyme Concentrate, TMB One Step Substrate Reagent, Stop Solution, and cover sheets.
# (4) To a vial containing IL-10 Standard was added […] Standard/Sample diluent, and the vial was stood at room temperature for 15 minutes to be dissolved (Standard sample stock solution 1L-10 concentration: 500 pg/mL).
# (5) Standard samples in each concentration for making a standard curve were prepared as follows. Firstly, to 300 μL of the medium was added 300 μL of the standard sample stock solution, and the mixture was mixed with a Voltex mixer (250 pg/mL). Next, 300 μL of the standard sample of 250 pg/mL was added to 300 μL of the medium and the mixture was mixed with a Voltex mixer (125 pg/mL). The same procedures were successively repeated to prepare standard solutions of 62.5, 31.25, 15.625, and 7.8125 pg/mL. As 0 pg/mL standard solution, the medium was used.
# (6) A kit containing wells treated with anti-IL-10 antibody (8 wells/strip) was warmed to room temperature and 50 μL of ELISA diluent in the kit was added into each well.
# (7) To each well containing ELISA diluent, 100 μL of the standard samples of each concentration and each test sample (diluded 50-100 fold with medium) were added.
# (8) After the wells were sealed with a cover sheet and gently tapped, they were left at room temperature for 2 hours.
# (9) 20× Wash Buffer was diluted 20-fold with water to prepare 1× Wash Buffer.
# (10) After the reaction was done for 2 hours, the solutions in each well were aspirated and washed 5 times with 300 μL of 1× Wash Buffer.
# (11) After Enzyme Concentrate (4 μL per 8 wells) was added to Detection antibody (1 ml per 8 wells), the solution was mixed by a Vortex mixer and then a necessary amount of Working Detector was prepared.
# (12) 100 μL of Working Detector was added to each well, covered with a cover sheet, and the wells were left at room temperature for an hour.
# (13) After the reaction was done for an hour, the solutions in wells were aspirated and washed 7 times with 300 μL of 1× Wash Buffer. […]
# CTLA-4 = assay: Intracellular staining of MT2 cells with fluorescence-labeled anti-CTLA-4 antibody and measurement by flow cytometry; format: cell-based, human; details: 48±2 hours; for Peak MFI of CTLA-4: isotype IgG2a subtracted, average of n=3
# Procedure: as §1, §2
# (1) MT2 cells were suspended in RPMI1640 medium (hereinafter referred to as “the medium”) supplemented with 10% fetal calf serum (FCS) and 1° penicillin/streptomycin (P/S) to give 3×10^5 cells/mL suspension and 3 mL of the suspension was added to each well of a 6-well plate. To each well were added 0.6 or 1.2 μL of the test compound solutions (compounds 1, 2, and 4), 0.75 or 1.5 μL of the test compound solution (compound 9), and 1.5 μL of the test compound solutions (compounds 8 and 10-17), and the cell cultures were incubated in a CO2 gas incubator (under 37° C., 5% CO2) and cultured for 48±2 hours. As a control of compound 1, 2 and 4, only 1.2 μL of DMSO was added to the well. In addition, as a control of compound 8-17, only 1.5 μL of DMSO was added to the well.
# (2) A piece of the cell culture was sampled to count cells with a cell counter (BIO RAD TC-20). The cell culture was centrifuged at 300×g for 5 min, and the supernatant was removed. The residue was suspended in phosphate buffered saline (supplemented with 1% bovine serum albumin (BSA), without calcium and magnesium) (1% BSA/PBS) to adjust the concentration of cells to 5-10×10^6 cells/mL.
# (3) To 5 ml tube, each 50 μL of the cell suspension was added.
# (4) Foxp3/Transcription Factor Fix/Perm Concentrate (4×) (Cat. No. TNB-1020-L050) (Solution A) in FOXP3/Transcription Factor Staining kit (TONBO biosciences) was diluted with Foxp3/Transcription Factor Fix/Perm Diluent (1×) (Cat. No. TNB-1022-L160) (for dilution of Solution A) to prepare 1× Solution A.
# (5) 1 mL of 1× Solution A was added to each tube and mixed by gentle pipetting. Subsequently, it was left at room temperature for 30 min, centrifuged at 300×g for […], and the supernatant was discarded.
# (6) Flow Cytometry Perm Buffer (10×) (Cat. No. TNB-1213-L150) (Solution B) in the kit was diluted 10-fold with water to prepare 1× Solution B.
# (7) 2 mL of 1× Solution B was added to the tube and centrifuged at 300×g for 5 min. The supernatant was discarded. 2 μL of 2% normal mouse serum/PBS was added to the tube and the tube was gently pipetted. Subsequently, it was left at room temperature for 15 min.
# (8) In the CTLA-4 measurement, 20 μL of anti-CTLA-4 antibody (BECKMAN COULTER, CD152-PE clone BN13I M2282) or mouse IgG2a (BECKMAN COULTER, IgG2a (Mouse)-PE A09142) for the control was added to the tube and the tube was gently stirred. Subsequently, it was left in the dark at room temperature for 30 min, and 2 mL of the 1× Solution B was added thereto, the mixture was centrifuged at 300×g for 5 min, and the supernatant was discarded. 2 mL of the 1× Solution B was added to the tube again, the mixture was centrifuged at 300×g for 5 min, and the supernatant was discarded.
# (9) Within 2 hours after the solution in the tube was suspended in 0.5 mL of 1% BSA/PBS, and the fluorescence at 577 nm was measured with 488 nm excitation with a flow cytometer (Sony: Cell Sorter SH800). The results were analyzed with software, FlowJo (Tree Star Inc.). The mean peak fluorescence intensity (MFI) of CTLA-4 and mean peak fluorescence intensity of isotype control IgG2a were calculated from histgrams of the measured fluorescence intensity and number of cells, and mean fluorescence intensity of IgG2a was subtracted from that of CTLA-4. Experiments were conducted in n=3, and the average values were shown.
# [1] = Homo sapiens, 48 h, 25.0 μmol/L, DMSO control = 100%, read-out: % against control (CTLA-4 expression)
Compound,IL-10 (ng/10^6 cells) ± standard deviate (n = 3) (IL-10; 12.5 μmol/L),IL-10 (ng/10^6 cells) ± standard deviate (n = 3) (IL-10; 25.0 μmol/L),activity at 12.5 µM (IL-10; 12.5 μmol/L),activity at 25 µM (IL-10; 25.0 μmol/L),Peak MFI of CTLA-4 (CTLA-4; 12.5 μmol/L),Peak MFI of CTLA-4 (CTLA-4; 25.0 μmol/L),"activity at 12.5 µM (CTLA-4; Homo sapiens, 48 h, 12.5 μmol/L, DMSO control = 100%, read-out: % against control (CTLA-4 expression))",activity at 25 µM (CTLA-4; [1])
COC(=O)C1=CN2CCc3c([nH]c4cc(Cl)ccc34)[C@@H]2[C@@H]2[C@@H](C)[C@@H](O)C[C@H]12 [Compound 9],11.1 ± 1.3 ng/10^6 cells,6.1 ± 1.3 ng/10^6 cells,67.7%,37.5%,778,539,76.3%,52.8%
COC(=O)C1=CN2CCc3c([nH]c4ccc(C)cc34)[C@@H]2[C@@H]2[C@@H](C)[C@@H](O)C[C@H]12 [Compound 14],7.4 ± 0.3 ng/10^6 cells,4.3 ± 1.0 ng/10^6 cells,67.7%,39.2%,,450,,53%
